Tests used:
human eosinophils = assay: Inhibition of histamine-induced eosinophil shape change (gated autofluorescence forward scatter assay); settings: for effect on histamine-induced eosinophil shape change: human eosinophils, result in words
[1] = target: T1, human histamine H4 receptor (Homo sapiens, UniProt Q9H3N8); assay: Binding assay on recombinant human histamine H4 receptor (3H-histamine displacement); settings: competition binding with 3H-histamine; membranes of SK-N-MC or COS7 cells expressing human H4 receptor; Cheng-Prusoff, KD 5 nM, ligand 5 nM
T1 construct: expressed in transfected cells; host or cells: SK-N-MC cells or COS7 cells, transiently transfected; cell membranes used
How it was run: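 Membranes from SK-N-MC or COS7 cells transiently transfected with human H4R, incubated with ^3H-histamine (5-70 nM) at room temperature for 45 min, nonspecific binding with 10,000 nM histamine. Filtration and scintillation counting; compound affinity from displacement of ^3H-ligand across varying concentrations.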

[2] = histamine 0.01 μM, HR antagonist 10 μM or none
[3] = histamine 0.1 μM, HR antagonist 10 μM or none
[4] = histamine 1 μM, HR antagonist 10 μM or none
[5] = histamine 10 μM, HR antagonist 10 μM or none
[6] = histamine 0 μM, HR antagonist 10 μM

T1 sequence (Q9H3N8 whole entry): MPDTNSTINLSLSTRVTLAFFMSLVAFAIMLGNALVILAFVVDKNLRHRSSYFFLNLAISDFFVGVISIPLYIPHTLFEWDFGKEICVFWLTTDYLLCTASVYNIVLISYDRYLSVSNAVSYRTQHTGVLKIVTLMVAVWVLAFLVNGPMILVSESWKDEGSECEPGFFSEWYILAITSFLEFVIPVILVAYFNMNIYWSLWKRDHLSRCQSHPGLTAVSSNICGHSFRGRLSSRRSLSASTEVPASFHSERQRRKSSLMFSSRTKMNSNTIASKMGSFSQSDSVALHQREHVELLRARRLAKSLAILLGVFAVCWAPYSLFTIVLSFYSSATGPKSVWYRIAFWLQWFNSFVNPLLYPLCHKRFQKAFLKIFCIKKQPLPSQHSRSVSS

Work on CN1CCN(C(=O)c2cc3cc(Cl)ccc3[nH]2)CC1 [(5-chloro-1H-indol-2-yl)-(4-methyl-piperazin-1-yl)-methanone] yielded an IC50 (human eosinophils; Homo sapiens, Eosinophil, read-out: IC50, inhibition of histamine-induced eosinophil shape change) of 270 nM.

For Cc1cnc(OCCCCC2CCN(C)CC2)cc1-c1nc2c(C)c(F)ccc2[nH]1 [Example 165, 5-Fluoro-4-methyl-2-{5-methyl-2-[4-(1-methyl-piperidin-4-yl)-butoxy]-pyridin-4-yl}-1H-benzoimidazole], the Ki [1] was 3 nM.

Compound Cc1cnc(OCCCCC2CCN(C)CC2)cc1-c1nc2cc(Cl)c(F)cc2[nH]1 [Example 166, 5-Chloro-6-fluoro-2-{5-methyl-2-[4-(1-methyl-piperidin-4-yl)-butoxy]-pyridin-4-yl}-1H-benzoimidazole] has a Ki [1] of 6 nM.

Cc1cnc(OCCCCC2CCN(C)CC2)cc1-c1nc2cc(C(C)(C)C)ccc2[nH]1 [Example 167, 5-tert-Butyl-2-{5-methyl-2-[4-(1-methyl-piperidin-4-yl)-butoxy]-pyridin-4-yl}-1H-benzoimidazole] gave a Ki [1] of 4 nM.

With Cc1cnc(OCCCCC2CCN(C)CC2)cc1-c1nc2c(C)c(C)ccc2[nH]1 [Example 168, 4,5-Dimethyl-2-{5-methyl-2-[4-(1-methyl-piperidin-4-yl)-butoxy]-pyridin-4-yl}-1H-benzoimidazole] the Ki [1] was 6 nM.

Cc1cc(C)c2nc(-c3cc(OCCCCC4CCN(C)CC4)ncc3Cl)[nH]c2c1 [Example 169, 2-{5-Chloro-2-[4-(1-methyl-piperidin-4-yl)-butoxy]-pyridin-4-yl}-4,6-dimethyl-1H-benzoimidazole] was tested, and the Ki [1] was 1 nM.

For CN1CCC(CCCCOc2cc(-c3nc4cc(Cl)ccc4[nH]3)c(Cl)cn2)CC1 [Example 170, 5-Chloro-2-{5-chloro-2-[4-(1-methyl-piperidin-4-yl)-butoxy]-pyridin-4-yl}-1H-benzoimidazole], the Ki [1] was 5 nM.

For CN1CCC(CCCCOc2cc(-c3nc4cc(Cl)c(F)cc4[nH]3)c(Cl)cn2)CC1 [Example 171, 5-Chloro-2-{5-chloro-2-[4-(1-methyl-piperidin-4-yl)-butoxy]-pyridin-4-yl}-6-fluoro-1H-benzoimidazole], the Ki [1] was 12 nM.

CN1CCC(CCCCOc2cc(-c3nc4cc(C(C)(C)C)ccc4[nH]3)c(Cl)cn2)CC1 [Example 172, 5-tert-Butyl-2-{5-chloro-2-[4-(1-methyl-piperidin-4-yl)-butoxy]-pyridin-4-yl}-1H-benzoimidazole] was tested, and the Ki [1] was 1 nM.

In the case of CN1CCC(CCCCOc2cc(-c3nc4c(Cl)cccc4[nH]3)c(Br)cn2)CC1 [Example 173, 2-{5-Bromo-2-[4-(1-methyl-piperidin-4-yl)-butoxy]-pyridin-4-yl}-4-chloro-1H-benzoimidazole], the Ki [1] is reported as 21 nM.

Work on CN1CCC(CCCCOc2cc(-c3nc4cc(Cl)c(F)cc4[nH]3)c(Br)cn2)CC1 [Example 174, 2-{5-Bromo-2-[4-(1-methyl-piperidin-4-yl)-butoxy]-pyridin-4-yl}-5-chloro-6-fluoro-1H-benzoimidazole] yielded a Ki [1] of 31 nM.

In the case of CN1CCC(CCCCOc2cc(-c3nc4cc(Cl)ccc4[nH]3)c(Br)cn2)CC1 [Example 175, 2-{5-Bromo-2-[4-(1-methyl-piperidin-4-yl)-butoxy]-pyridin-4-yl}-5-chloro-1H-benzoimidazole], the Ki [1] is reported as 6 nM.

In the case of Cc1c(F)ccc2[nH]c(-c3ccc(OCCCC4CCN(C)CC4)cc3CO)nc12 [Example 176, {2-(5-Fluoro-4-methyl-1H-benzoimidazol-2-yl)-5-[3-(1-methyl-piperidin-4-yl)-propoxy]-phenyl}-methanol], the Ki [1] is reported as 4 nM.

In the case of Cc1cc(C)c2nc(-c3cc(OCCCCC4CCN(C)CC4)ncc3CO)[nH]c2c1 [Example 177, {4-(4,6-Dimethyl-1H-benzoimidazol-2-yl)-6-[4-(1-methyl-piperidin-4-yl)-butoxy]-pyridin-3-yl}-methanol], the Ki [1] is reported as 4 nM.

For NCCc1c[nH]cn1 [Histamine, histamine], the “Fold Change (eosinophil shape change)” value (human eosinophils; [2]) was 1.01, the “Fold Change (eosinophil shape change)” value (human eosinophils; [3]) was 1.21 and the “Fold Change (eosinophil shape change)” value (human eosinophils; [4]) was 1.31. The “Fold Change (eosinophil shape change)” value (human eosinophils; [5]) was 1.34.

CN(C)CCOC(c1ccccc1)c1ccccc1 [diphenhydramine] was tested, and the “Fold Change (eosinophil shape change)” value (human eosinophils; [6]) was 1.00, the “Fold Change (eosinophil shape change)” value (human eosinophils; [2]) was 1.03 and the “Fold Change (eosinophil shape change)” value (human eosinophils; [3]) was 1.18. The “Fold Change (eosinophil shape change)” value (human eosinophils; [4]) was 1.50, the “Fold Change (eosinophil shape change)” value (human eosinophils; [5]) was 1.63 and the “effect on histamine-induced eosinophil shape change” value (human eosinophils) was “did not alter the histamine-induced shape change”.

For CNC(=C[N+](=O)[O-])NCCSCc1ccc(CN(C)C)o1 [ranatidine], the “Fold Change (eosinophil shape change)” value (human eosinophils; [6]) was 1.00, the “Fold Change (eosinophil shape change)” value (human eosinophils; [2]) was 1.04 and the “Fold Change (eosinophil shape change)” value (human eosinophils; [3]) was 1.21. For the same compound, the “Fold Change (eosinophil shape change)” value (human eosinophils; [4]) was 1.49, the “Fold Change (eosinophil shape change)” value (human eosinophils; [5]) was 1.64 and the “effect on histamine-induced eosinophil shape change” value (human eosinophils) was “did not alter the histamine-induced shape change”.

From US7723527B2 (Janssen Pharmaceutica NV, priority 2003, dated 2010)
